*1 amine or outer side, *2 acyl side, *3 side chain or, on linkers, in order; H or OH if unused. Where a SMILES comes first, the peptide text is derived from it. Bridges are numbered along the chain shown (N, C = ends). [ ]: non-standard residue; d: D form. The star is where a group is joined. dhPhe(3-Cl,4-CF3) = N[C@H](CCc1ccc(C(F)(F)F)c(Cl)c1)C(=O)O; X3 = C=CCN([C@H](Cc1ccccc1)C(=O)[*:2])[*:1]; NMeGly(cPent) = CN[C@H](C(=O)O)C1CCCC1; NMeNle(5-ene) = C=CCC[C@H](NC)C(=O)O; NMeD = CN[C@@H](CC(=O)O)C(=O)O; NMeL = CN[C@@H](CC(C)C)C(=O)O; Morpholide = C1CN(*)CCO1; Ac5c = NC1(C(=O)O)CCCC1; Sar = CNCC(=O)O
What was measured:
[1] = biological target: GDP-bound NRAS wild-type protein (Homo sapiens, UniProt P01111); experiment: Binding to NRAS by surface plasmon resonance (SPR), Single Cycle Kinetics; conditions: SPR; for NRAS/KRAS (ratio of KD value with respect to NRAS to KD value with respect to KRAS) / NRAS/KRAS (ratio of KD value for NRAS to KD value for KRAS): GDP-bound NRAS wild-type vs GDP-bound KRAS wild-type
Chain of GDP-bound NRAS wild-type protein (P01111 whole entry): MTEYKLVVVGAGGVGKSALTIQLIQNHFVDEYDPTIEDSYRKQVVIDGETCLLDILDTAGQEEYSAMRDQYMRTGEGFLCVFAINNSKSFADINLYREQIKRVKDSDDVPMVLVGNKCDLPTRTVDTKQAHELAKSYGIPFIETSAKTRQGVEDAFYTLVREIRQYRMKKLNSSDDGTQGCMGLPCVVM

[2] = tested on: human lung cancer strain NCI-H441
[3] = biological target: GDP-bound HRAS wild-type protein (Homo sapiens, UniProt P01112); experiment: Binding to HRAS by surface plasmon resonance (SPR), Single Cycle Kinetics; conditions: SPR; for HRAS/KRAS (ratio of KD value with respect to HRAS to KD value with respect to KRAS) / HRAS/KRAS (ratio of KD value for HRAS to KD value for KRAS): GDP-bound HRAS wild-type vs GDP-bound KRAS wild-type
Chain of GDP-bound HRAS wild-type protein (P01112 whole entry): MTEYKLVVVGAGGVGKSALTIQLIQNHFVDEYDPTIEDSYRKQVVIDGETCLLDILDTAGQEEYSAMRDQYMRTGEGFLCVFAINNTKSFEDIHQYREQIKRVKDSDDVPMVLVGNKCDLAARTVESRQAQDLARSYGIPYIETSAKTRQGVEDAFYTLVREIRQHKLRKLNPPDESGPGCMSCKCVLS

Row | SMILES | IC50 [2] [µM] | NRAS/KRAS (ratio of KD value for NRAS to KD value for KRAS) ([1]; KD ratio) | HRAS/KRAS (ratio of KD value for HRAS to KD value for KRAS) ([3]; KD ratio) | other results
1 | C=CCC[C@H]1C(=O)N(CC=C)[C@H](Cc2ccccc2)C(=O)N(C)CC(=O)N[C@H](CCc2ccc(C(F)(F)F)c(Cl)c2)C(=O)N2CCC[C@H]2C(=O)NC2(CCCC2)C(=O)N(C)[C@@H](C2CCCC2)C(=O)N(C)[C@H](C(=O)N2CCOCC2)CC(=O)N(C)[C@@H](CC(C)C)C(=O)N[C@@H]([C@@H](C)CC)C(=O)N(C)CC(=O)N1C [PP0599] ([NMeL]I[Sar][NMeNle(5-ene)][X3][Sar][dhPhe(3-Cl,4-CF3)]P[Ac5c][NMeGly(cPent)][NMeD]-Morpholide; lactam N-11) | 2.8 |  |  | NRAS/KRAS (ratio of KD value with respect to GDP-bound NRAS wild-type protein to KD value with respect to KRAS) [1]: C (A compound having a KD ratio of 0.1 or more and less than 3 is denoted as C); HRAS/KRAS (ratio of KD value with respect to GDP-bound HRAS wild-type protein to KD value with respect to KRAS) [3]: B (a compound having 3 or more and less than 10 is denoted as B)
2 | CCO[C@@H]1C[C@H]2C(=O)NC3(CCC3)C(=O)N(C)[C@@H](C3CCCC3)C(=O)N(C)[C@H](C(=O)N(C)CC)CC(=O)N(C)[C@H]3CCCCCc4ccc(cc4)C[C@@H](C(=O)N(C)CC(=O)N[C@@H](CCc4cc(F)c(C(F)(F)F)c(F)c4)C(=O)N2C1)N1CC/C=C\C[C@@H](C1=O)N(C)C(=O)CN(C)C(=O)[C@H]([C@@H](C)CC)NC3=O [PP2117] | 0.0289 |  |  | NRAS/KRAS (ratio of KD value with respect to NRAS to KD value with respect to KRAS) [1]: A (a compound having 10 or more and less than 20 is denoted as A); HRAS/KRAS (ratio of KD value with respect to HRAS to KD value with respect to KRAS) [3]: A (a compound having 10 or more and less than 20 is denoted as A)
3 | CC[C@H](C)C1NC(=O)[C@H](CC(C)C)N(C)C(=O)C[C@@H](C(=O)N(C)C)N(C)C(=O)[C@H](C2CCCC2)N(C)C(=O)C2(CCCC2)NC(=O)C2CCCN2C(=O)[C@@H](CCc2ccc(C(F)(F)F)c(Cl)c2)NC(=O)CN(C)C(=O)[C@@H](Cc2ccc(C)cc2)N2CC/C=C\CCN(CC2=O)C(=O)CN(C)C1=O (stereo partly drawn) [PP0618] | 0.0791 |  |  | NRAS/KRAS (ratio of KD value with respect to GDP-bound NRAS wild-type protein to KD value with respect to KRAS) [1]: C (A compound having a KD ratio of 0.1 or more and less than 3 is denoted as C); HRAS/KRAS (ratio of KD value with respect to GDP-bound HRAS wild-type protein to KD value with respect to KRAS) [3]: C (A compound having a KD ratio of 0.1 or more and less than 3 is denoted as C)
4 | CC[C@H](C)[C@@H]1NC(=O)[C@H](CC(C)C)N(C)C(=O)C[C@@H](C)N(C)C(=O)[C@H](C2CCCC2)N(C)C(=O)C2(CCC2)NC(=O)[C@@H]2CCCN2C(=O)[C@H](CCc2cc(F)c(C(F)(F)F)c(F)c2)NC(=O)CN(C)C(=O)[C@H](Cc2ccc(C(F)(F)F)cc2)N2CC/C=C\C[C@@H](C2=O)N(C)C(=O)CN(C)C1=O [PP1099] | 0.0681 |  |  | NRAS/KRAS (ratio of KD value with respect to NRAS to KD value with respect to KRAS) ([1]; KD ratio): B (a compound having 3 or more and less than 10 is denoted as B); HRAS/KRAS (ratio of KD value with respect to HRAS to KD value with respect to KRAS) ([3]; KD ratio): A (a compound having 10 or more and less than 20 is denoted as A)
5 | CC[C@H](C)[C@@H]1NC(=O)[C@H](CC2CC2)N(C)C(=O)C[C@@H](C(=O)N(C)C)N(C)C(=O)[C@H](C2CCCC2)N(C)C(=O)C2(CC(C)(C)C2)NC(=O)[C@@H]2C[C@H](C)CN2C(=O)[C@H](CCc2cc(F)c(C(F)(F)F)c(F)c2)NC(=O)CN(C)C(=O)[C@H](Cc2ccc(C(F)(F)F)cc2)N2CC/C=C\C[C@@H](C2=O)N(C)C(=O)CN(C)C1=O [PP1660] | 0.0043 | A (a compound having 10 or more and less than 20 is denoted as A) | A (a compound having 10 or more and less than 20 is denoted as A) | 
6 | CCCN(C)C(=O)[C@@H]1CC(=O)N(C)[C@@H](COC)C(=O)N[C@@H]([C@@H](C)CC)C(=O)N(C)CC(=O)N(C)[C@H]2C/C=C\CCN(C2=O)[C@@H](Cc2ccc(C(F)(F)F)cc2)C(=O)N(C)CC(=O)N[C@@H](CCc2cc(F)c(C(F)(F)F)c(F)c2)C(=O)N2C[C@H](OCC)C[C@H]2C(=O)NC2(CCC2)C(=O)N(C)[C@@H](C2CCCC2)C(=O)N1C [PP1706] | 0.0067 | A (a compound having 10 or more and less than 20 is denoted as A) | A (a compound having 10 or more and less than 20 is denoted as A) | 
7 | CCO[C@@H]1C[C@H]2C(=O)NC3(CC(C)(C)C3)C(=O)N(C)[C@@H](C3CCCC3)C(=O)N(C)[C@H](C(=O)N(C)C)CC(=O)N(C)[C@@H](CC)C(=O)N[C@@H]([C@@H](C)CC)C(=O)N(C)CC(=O)N(C)[C@H]3C/C=C\CCN(C3=O)[C@@H](Cc3ccc(C)cc3)C(=O)N(C)CC(=O)N[C@@H](CCc3ccc(C(F)(F)F)c(Cl)c3)C(=O)N2C1 [PP1878] | 0.0088 | A (a compound having 10 or more and less than 20 is denoted as A) | A (a compound having 10 or more and less than 20 is denoted as A) | 

Source: patent publication US20250230193A1, “CYCLIC COMPOUND HAVING SELECTIVE KRAS INHIBITORY EFFECT ON HRAS AND NRAS” (CHUGAI SEIYAKU KABUSHIKI KAISHA, priority 2022, published 2025)
